# According to ChEMBL document CHEMBL5223190, “Discovery of Bis-sulfonamides as Novel Inhibitors of Mitochondrial NADH-Quinone Oxidoreductase (Complex I)” (ACS Med Chem Lett, 2023):
# The source made the active and inactive calls. The rule behind the calls is not given here.
# Target: not listed separately
# Assay: Inhibition of bovine heart NADH oxidase activity using submitochondrial particle as source of enzyme measured after 4 mins
# Format: mitochondria, Bos taurus, Mitochondria
# Conditions: not given
row,Compound,IC50 [nM]
1,Cc1ccc(S(=O)(=O)N2CCCC[C@H]2COCOC[C@@H]2CCCCN2S(=O)(=O)c2ccc(C)cc2)cc1,2600
2,CCCCCCCCS(=O)(=O)N1CCC[C@H]1COCOC[C@@H]1CCCN1S(=O)(=O)CCCCCCCC,360
3,CCCCCCCCCCS(=O)(=O)N1CCC[C@H]1COCOC[C@@H]1CCCN1S(=O)(=O)CCCOc1ccc(C)cc1,72
4,Cc1ccc(C(=O)N2CCC[C@H]2COCOC[C@@H]2CCCN2C(=O)c2ccc(C)cc2)cc1,5000
5,Cc1ccc(S(=O)(=O)N(C)CCOCOCCN(C)S(=O)(=O)c2ccc(C)cc2)cc1,6400
6,O=S(=O)(c1ccccc1)N1CCC[C@H]1COCOC[C@@H]1CCCN1S(=O)(=O)c1ccccc1,4100
7,Cc1ccc(S(=O)(=O)N2CCC[C@H]2COCOC[C@@H]2CCCN2S(=O)(=O)c2ccc(C)cc2)cc1,890
8,CCCCc1ccc(S(=O)(=O)N2CCC[C@H]2COCOC[C@@H]2CCCN2S(=O)(=O)c2ccc(CCCC)cc2)cc1,140
9,Cc1ccc(S(=O)(=O)N2[C@H](COCOC[C@@H]3C[C@@H]4CCCC[C@@H]4N3S(=O)(=O)c3ccc(C)cc3)C[C@@H]3CCCC[C@@H]32)cc1,5800
10,Cc1ccc(S(=O)(=O)N2CCC[C@H]2CCOCOCC[C@@H]2CCCN2S(=O)(=O)c2ccc(C)cc2)cc1,620
11,CCCCCCOCCCS(=O)(=O)N1CCC[C@H]1COCOC[C@@H]1CCCN1S(=O)(=O)CCCOCCCCCC,260
12,COCOC[C@@H]1CCCN1S(=O)(=O)c1ccc(C)cc1,85000
13,Cc1ccc(S(=O)(=O)N2CCC[C@H]2CO)cc1,> 230000
14,Cc1ccc(S(=O)(=O)N2CC[C@@H](COCOC[C@@H]3CCN(S(=O)(=O)c4ccc(C)cc4)C3)C2)cc1,1300
15,Cc1ccc(S(=O)(=O)N2CC[C@H]2COCOC[C@@H]2CCN2S(=O)(=O)c2ccc(C)cc2)cc1,870
16,CCCCCCCCCCS(=O)(=O)N1CCC[C@H]1COCOC[C@@H]1CCCN1S(=O)(=O)CCCCCCCCCC,88
17,CCCCCCCCCCS(=O)(=O)N1CCC[C@H]1COCOC[C@@H]1CCCN1S(=O)(=O)CCCOCCCCCC,48
18,CCCCCCCCCCS(=O)(=O)N1CCC[C@H]1COCOC[C@@H]1CCCN1S(=O)(=O)CCCOc1ccc(I)cc1,17
19,Cc1ccc(S(=O)(=O)N2CC[C@@H](OCO[C@@H]3CCN(S(=O)(=O)c4ccc(C)cc4)C3)C2)cc1,31000
20,CCCCCCc1ccc(S(=O)(=O)N2CCC[C@H]2COCOC[C@@H]2CCCN2S(=O)(=O)c2ccc(CCCCCC)cc2)cc1,98
21,O=S(=O)(c1ccc(Cl)cc1)N1CCC[C@H]1COCOC[C@@H]1CCCN1S(=O)(=O)c1ccc(Cl)cc1,1100
22,CCCCCCCCc1ccc(S(=O)(=O)N2CCC[C@H]2COCOC[C@@H]2CCCN2S(=O)(=O)c2ccc(CCCCCCCC)cc2)cc1,3400

# The remaining lines, values ahead:
row,IC50 [nM],Compound
1,3600,CCCCCCCc1ccc(S(=O)(=O)N2CCC[C@H]2COCOC[C@@H]2CCCN2S(=O)(=O)c2ccc(CCCCCCC)cc2)cc1
2,150,CCCCCc1ccc(S(=O)(=O)N2CCC[C@H]2COCOC[C@@H]2CCCN2S(=O)(=O)c2ccc(CCCCC)cc2)cc1
3,3100,Cc1ccc(S(=O)(=O)N2CCC[C@@H]2COCOC[C@H]2CCCN2S(=O)(=O)c2ccc(C)cc2)cc1
4,2400,O=S(=O)(CCCOc1ccccc1)N1CCC[C@H]1COCOC[C@@H]1CCCN1S(=O)(=O)CCCOc1ccccc1
5,810,Cc1ccc(S(=O)(=O)N2CCC[C@@H]2COCOC[C@@H]2CCCN2S(=O)(=O)c2ccc(C)cc2)cc1
6,1100,Cc1ccc(S(=O)(=O)N2CCC[C@H]2COCOCCCc2ccccc2)cc1
7,6500,CCCCCCCCCCCCS(=O)(=O)N1CCC[C@H]1COCOC[C@@H]1CCCN1S(=O)(=O)CCCCCCCCCCCC
8,14,O=S(=O)(CCCOc1ccc(I)cc1)N1CCC[C@H]1COCOC[C@@H]1CCCN1S(=O)(=O)CCCOc1ccc(I)cc1
9,4600,Cc1ccc(S(=O)(=O)N2CCC[C@H]2COCOCc2ccccc2)cc1
10,150,CCCCCCCCCCS(=O)(=O)N1CCC[C@H]1COCOC[C@@H]1CCCN1S(=O)(=O)CCCOc1ccccc1
11,4400,COc1ccc(S(=O)(=O)N2CCC[C@H]2COCOC[C@@H]2CCCN2S(=O)(=O)c2ccc(OC)cc2)cc1
12,16,CC1(CCCCCCCCS(=O)(=O)N2CCC[C@H]2COCOC[C@@H]2CCCN2S(=O)(=O)CCCOc2ccc(I)cc2)N=N1
13,270,Cc1ccc(OCCCS(=O)(=O)N2CCC[C@H]2COCOC[C@@H]2CCCN2S(=O)(=O)CCCOc2ccc(C)cc2)cc1

# Target: not listed separately
# Assay: Inhibition of bovine heart NADH-Q1 oxidoreductase (complex 1) oxidase activity using submitochondrial particle as source of enzyme measured after 4 mins
# Format: mitochondria, Bos taurus, Mitochondria
# Conditions: not given
row,Compound,IC50 [nM]
1,O=S(=O)(CCCOc1ccc(I)cc1)N1CCC[C@H]1COCOC[C@@H]1CCCN1S(=O)(=O)CCCOc1ccc(I)cc1,26
2,CCCCCCCCCCS(=O)(=O)N1CCC[C@H]1COCOC[C@@H]1CCCN1S(=O)(=O)CCCOc1ccc(I)cc1,40

# Species: Bos taurus
# Assay: Binding affinity to bovine heart NADH-Q1 oxidoreductase (complex 1) oxidase activity using submitochondrial particle as source of enzyme using [125I]-(S)-2-{[(tert-butyldiphenylsilyl)oxy]methyl}-1-{[3-(hexyloxy)propyl]sulfonyl}pyrrolidine by SDS-PAGE analysis
# Conditions: Mitochondria
row,Compound,Activity
1,O=S(=O)(CCCOc1ccc(I)cc1)N1CCC[C@H]1COCOC[C@@H]1CCCN1S(=O)(=O)CCCOc1ccc(I)cc1,Active
2,CCCCCCCCCCS(=O)(=O)N1CCC[C@H]1COCOC[C@@H]1CCCN1S(=O)(=O)CCCOc1ccc(I)cc1,Active

# Target: not listed separately
# Assay: Inhibition of bovine heart succinate-cytochrome c oxidoreductase activity using submitochondrial particle as source of enzyme measured after 4 mins
# Format: mitochondria, Bos taurus, Mitochondria
# Conditions: not given
row,IC50 [µM],Compound
1,> 20,O=S(=O)(CCCOc1ccc(I)cc1)N1CCC[C@H]1COCOC[C@@H]1CCCN1S(=O)(=O)CCCOc1ccc(I)cc1
2,> 20,CCCCCCCCCCS(=O)(=O)N1CCC[C@H]1COCOC[C@@H]1CCCN1S(=O)(=O)CCCOc1ccc(I)cc1
